Active and inactive are the calls of the source. No cut-off for these calls is given here.
Assays:
Format in all cases: functional, organism-based
Rattus norvegicus [1] = experiment: Carcinogenic activity on all sites after oral administration
Rattus norvegicus [2] = experiment: Carcinogenic activity on breast after oral administration of the compound
Rattus norvegicus [3] = experiment: Compound was tested for carcinogenic activity on mixed data after oral administration of the compound; + denotes four or five active sites.
Rattus norvegicus [4] = experiment: Carcinogenic activity on ear duct after oral administration
Rattus norvegicus [5] = experiment: Carcinogenic activity on other sites after oral administration
Rattus norvegicus [6] = experiment: Carcinogenic activity on all sites after intraperitoneal administration
Rattus norvegicus [7] = experiment: Compound was tested for carcinogenic activity on other sites after intraperitoneal administration of the compound; + denotes carcinogenic activity.
Rattus norvegicus [8] = experiment: Carcinogenic activity on all sites after subcutaneous administration
Rattus norvegicus [9] = experiment: Carcinogenic activity on other sites after subcutaneous administration
Rattus norvegicus [10] = experiment: Carcinogenic activity on breast after subcutaneous administration
Rattus norvegicus [11] = experiment: Compound was tested for carcinogenic activity on mixed data after subcutaneous administration of the compound; + denotes carcinogenic activity.
Rattus norvegicus [12] = experiment: Carcinogenic activity on ear duct after subcutaneous administration
Rattus norvegicus [13] = experiment: Compound was tested for carcinogenic activity on ear duct after oral administration of the compound; na denotes data not available.
Rattus norvegicus [14] = experiment: Tested for carcinogenic activity on breast after oral administration of the compound; - denotes non carcinogenic activity.
Rattus norvegicus [15] = experiment: Carcinogenic activity after oral administration
Rattus norvegicus [16] = experiment: Carcinogenic activity on mixed data after oral administration
Rattus norvegicus [17] = experiment: Carcinogenic activity on liver after oral administration of the compound
Rattus norvegicus [18] = experiment: Carcinogenic activity on ear duct after oral administration of the compound; - denotes non carcinogenic activity.
Rattus norvegicus [19] = experiment: Carcinogenic activity on breast after oral administration
Rattus norvegicus [20] = experiment: Carcinogenic activity on liver after subcutaneous administration
Rattus norvegicus [21] = experiment: Carcinogenic activity on breast after intraperitoneal administration
Rattus norvegicus [22] = experiment: Carcinogenic activity on liver after oral administration

## CC(=O)Nc1ccc(-c2ccccc2)cc1
Rattus norvegicus [1]
  Activity: Carcinogenic activity
Rattus norvegicus [2]
  Activity: Carcinogenic activity
Rattus norvegicus [3]
  Activity: Carcinogenic activity
Rattus norvegicus [4]
  Activity: Carcinogenic activity
Rattus norvegicus [5]
  Activity: Carcinogenic activity

## ONc1ccc2ccccc2c1
Rattus norvegicus [6]
  Activity: Carcinogenic activity
Rattus norvegicus [7]
  Activity: Carcinogenic activity

## CC(=O)ON(C(C)=O)c1cccc2ccc3ccccc3c12
Rattus norvegicus [8]
  Activity: Carcinogenic activity
Rattus norvegicus [9]
  Activity: Carcinogenic activity

## ONc1ccc2c(c1)Cc1ccccc1-2
Rattus norvegicus [8]
  Activity: Carcinogenic activity
Rattus norvegicus [10]
  Activity: Carcinogenic activity
Rattus norvegicus [9]
  Activity: Carcinogenic activity
Rattus norvegicus [11]
  Activity: Carcinogenic activity
Rattus norvegicus [12]
  Activity: Carcinogenic activity

## COc1cccc(-c2cccc(OC)c2N)c1N
Rattus norvegicus [13]
  Activity: inactive

## Nc1ccc(/C=C/c2ccc(N)cc2)cc1
Rattus norvegicus [8]
  Activity: Carcinogenic activity
Rattus norvegicus [12]
  Activity: Carcinogenic activity

## Nc1ccc2ccccc2c1
Rattus norvegicus [1]
  Activity: inactive
Rattus norvegicus [14]
  Activity: inactive
Rattus norvegicus [15]
  Activity: inactive
Rattus norvegicus [16]
  Activity: inactive
Rattus norvegicus [17]
  Activity: inactive
Rattus norvegicus [18]
  Activity: inactive

## NNc1nc(-c2ccc([N+](=O)[O-])o2)cs1
Rattus norvegicus [1]
  Activity: Carcinogenic activity
Rattus norvegicus [19]
  Activity: Carcinogenic activity

## Nc1cccc2c1ccc1ccccc12
Rattus norvegicus [1]
  Activity: Carcinogenic activity
Rattus norvegicus [19]
  Activity: Carcinogenic activity

## N#Cc1cc(/C=C/c2ccccc2)ccc1N
Rattus norvegicus [8]
  Activity: Carcinogenic activity
Rattus norvegicus [9]
  Activity: Carcinogenic activity
Rattus norvegicus [20]
  Activity: Carcinogenic activity

## CC(=O)Nc1ccc2c(c1)-c1ccccc1C2
Rattus norvegicus [6]
  Activity: Carcinogenic activity
Rattus norvegicus [21]
  Activity: Carcinogenic activity

## CC(=O)Nc1ccc(-c2ccc(NC(C)=O)cc2C)cc1
Rattus norvegicus [1]
  Activity: Carcinogenic activity
Rattus norvegicus [2]
  Activity: Carcinogenic activity
Rattus norvegicus [3]
  Activity: Carcinogenic activity
Rattus norvegicus [4]
  Activity: Carcinogenic activity
Rattus norvegicus [5]
  Activity: Carcinogenic activity

## CC(=O)Nc1csc(-c2ccc([N+](=O)[O-])o2)n1
Rattus norvegicus [8]
  Activity: Carcinogenic activity
Rattus norvegicus [10]
  Activity: Carcinogenic activity
Rattus norvegicus [9]
  Activity: Carcinogenic activity

## Nc1ccc(/C=C/c2ccc(N)cc2Cl)c(Cl)c1
Rattus norvegicus [8]
  Activity: Carcinogenic activity
Rattus norvegicus [20]
  Activity: Carcinogenic activity

## Cc1ccc(C(=O)Nc2ccc(S(=O)(=O)O)c3cc(S(=O)(=O)O)cc(S(=O)(=O)O)c23)cc1NC(=O)c1cccc(NC(=O)Nc2cccc(C(=O)Nc3cc(C(=O)Nc4ccc(S(=O)(=O)O)c5cc(S(=O)(=O)O)cc(S(=O)(=O)O)c45)ccc3C)c2)c1
Rattus norvegicus [1]
  Activity: Active
Rattus norvegicus [14]
  Activity: inactive
Rattus norvegicus [22]
  Activity: Active
Rattus norvegicus [18]
  Activity: inactive
Rattus norvegicus [5]
  Activity: Active

## CC(=O)ON(C(C)=O)c1ccc2c(c1)Cc1ccccc1-2
Rattus norvegicus [8]
  Activity: Carcinogenic activity
Rattus norvegicus [9]
  Activity: Carcinogenic activity

## O=CNNc1nc(-c2ccc([N+](=O)[O-])o2)cs1
Rattus norvegicus [1]
  Activity: Carcinogenic activity
Rattus norvegicus [19]
  Activity: Carcinogenic activity
Rattus norvegicus [5]
  Activity: Carcinogenic activity

## Cc1ccc(C)c(-c2ccc(N)cc2C)c1
Rattus norvegicus [8]
  Activity: Carcinogenic activity
Rattus norvegicus [9]
  Activity: Carcinogenic activity

## CC(=O)N(OC(=O)c1ccccc1)c1ccc2c(c1)Cc1ccccc1-2
Rattus norvegicus [8]
  Activity: Carcinogenic activity
Rattus norvegicus [9]
  Activity: Carcinogenic activity

## Nc1ccc(-c2ccc(N)cc2)cc1
Rattus norvegicus [8]
  Activity: Carcinogenic activity
Rattus norvegicus [9]
  Activity: Carcinogenic activity
Rattus norvegicus [20]
  Activity: Carcinogenic activity
Rattus norvegicus [11]
  Activity: Carcinogenic activity
Rattus norvegicus [12]
  Activity: Carcinogenic activity

## N/C(=N\O)c1ccc([N+](=O)[O-])o1
Rattus norvegicus [1]
  Activity: Carcinogenic activity
Rattus norvegicus [19]
  Activity: Carcinogenic activity
Rattus norvegicus [16]
  Activity: Carcinogenic activity

## CN(C)c1ccc2c(c1)Cc1ccccc1-2
Rattus norvegicus [1]
  Activity: Carcinogenic activity
Rattus norvegicus [2]
  Activity: Carcinogenic activity
Rattus norvegicus [16]
  Activity: Carcinogenic activity
Rattus norvegicus [22]
  Activity: Carcinogenic activity
Rattus norvegicus [4]
  Activity: Carcinogenic activity
Rattus norvegicus [5]
  Activity: Carcinogenic activity

## CC(=O)Nc1ccc2c(c1)C(=O)c1ccccc1-2
Rattus norvegicus [1]
  Activity: Carcinogenic activity
Rattus norvegicus [2]
  Activity: Carcinogenic activity
Rattus norvegicus [22]
  Activity: Carcinogenic activity
Rattus norvegicus [13]
  Activity: inactive

## Nc1ccc(/C=C/c2ccc(N)c(Cl)c2)cc1Cl
Rattus norvegicus [8]
  Activity: Carcinogenic activity
Rattus norvegicus [9]
  Activity: Carcinogenic activity

## O=S(=O)(c1ccccc1)N(O)c1ccc2c(c1)Cc1ccccc1-2
Rattus norvegicus [6]
  Activity: Carcinogenic activity
Rattus norvegicus [21]
  Activity: Carcinogenic activity
Rattus norvegicus [7]
  Activity: Carcinogenic activity

## COc1cc(N)ccc1-c1ccccc1
Rattus norvegicus [8]
  Activity: Carcinogenic activity
Rattus norvegicus [9]
  Activity: Carcinogenic activity

## Nc1ccc2c(ccc3ccccc32)c1
Rattus norvegicus [1]
  Activity: Carcinogenic activity
Rattus norvegicus [19]
  Activity: Carcinogenic activity

## Cc1cc(/C=C/c2ccccc2)ccc1N
Rattus norvegicus [8]
  Activity: Carcinogenic activity
Rattus norvegicus [9]
  Activity: Carcinogenic activity

## O=C(c1ccccc1)N(O)c1ccc2c(c1)Cc1ccccc1-2
Rattus norvegicus [6]
  Activity: Carcinogenic activity
Rattus norvegicus [21]
  Activity: Carcinogenic activity
Rattus norvegicus [7]
  Activity: Carcinogenic activity

## [O-][n+]1ccc(NO)c2ccccc21
Rattus norvegicus [1]
  Activity: Carcinogenic activity
Rattus norvegicus [19]
  Activity: Carcinogenic activity
Rattus norvegicus [5]
  Activity: Carcinogenic activity

## Cc1ccc(/N=N/c2cc(C)ccc2N)cc1
Rattus norvegicus [19]
  Activity: Carcinogenic activity

## COc1cc(/C=C/c2ccccc2)c(OC)cc1N
Rattus norvegicus [8]
  Activity: Carcinogenic activity
Rattus norvegicus [12]
  Activity: Carcinogenic activity

## CC(=O)N(O)c1ccc2c(ccc3ccccc32)c1
Rattus norvegicus [8]
  Activity: Carcinogenic activity
Rattus norvegicus [10]
  Activity: Carcinogenic activity
Rattus norvegicus [9]
  Activity: Carcinogenic activity

## CC(=O)N(C(C)=O)c1ccc(/C=C/c2ccccc2)cc1
Rattus norvegicus [8]
  Activity: Carcinogenic activity
Rattus norvegicus [9]
  Activity: Carcinogenic activity
Rattus norvegicus [12]
  Activity: Carcinogenic activity

## Cc1cc(-c2ccc(N)c(C)c2)ccc1N
Rattus norvegicus [8]
  Activity: Carcinogenic activity
Rattus norvegicus [10]
  Activity: Carcinogenic activity
Rattus norvegicus [9]
  Activity: Carcinogenic activity
Rattus norvegicus [11]
  Activity: Carcinogenic activity
Rattus norvegicus [4]
  Activity: Carcinogenic activity

## CC(=O)Nc1ccc2c(c1)Cc1ccc(F)cc1-2
Rattus norvegicus [1]
  Activity: Carcinogenic activity
Rattus norvegicus [2]
  Activity: Carcinogenic activity
Rattus norvegicus [16]
  Activity: Carcinogenic activity
Rattus norvegicus [22]
  Activity: Carcinogenic activity
Rattus norvegicus [4]
  Activity: Carcinogenic activity
Rattus norvegicus [5]
  Activity: Carcinogenic activity

## Nc1ccc(/C=C/c2ccc(F)cc2)cc1
Rattus norvegicus [8]
  Activity: Carcinogenic activity
Rattus norvegicus [9]
  Activity: Carcinogenic activity
Rattus norvegicus [20]
  Activity: Carcinogenic activity
Rattus norvegicus [16]
  Activity: Carcinogenic activity
Rattus norvegicus [12]
  Activity: Carcinogenic activity

## Nc1ccc(-c2ccccc2)cc1
Rattus norvegicus [1]
  Activity: Carcinogenic activity
Rattus norvegicus [19]
  Activity: Carcinogenic activity

## Cc1cc(C)c(-c2ccc(N)cc2C)c(C)c1
Rattus norvegicus [8]
  Activity: Carcinogenic activity
Rattus norvegicus [9]
  Activity: Carcinogenic activity

## Cc1cc(-c2ccccc2C)ccc1N
Rattus norvegicus [1]
  Activity: Carcinogenic activity
Rattus norvegicus [19]
  Activity: Carcinogenic activity
Rattus norvegicus [16]
  Activity: Carcinogenic activity
Rattus norvegicus [4]
  Activity: Carcinogenic activity
Rattus norvegicus [5]
  Activity: Carcinogenic activity

## Cc1cc(/N=N/c2ccccc2C)ccc1N
Rattus norvegicus [8]
  Activity: Carcinogenic activity
Rattus norvegicus [20]
  Activity: Carcinogenic activity

## CC(=O)N(C(C)=O)c1ccc2c(c1)Cc1ccccc1-2
Rattus norvegicus [1]
  Activity: Carcinogenic activity
Rattus norvegicus [2]
  Activity: Carcinogenic activity
Rattus norvegicus [16]
  Activity: Carcinogenic activity
Rattus norvegicus [22]
  Activity: Carcinogenic activity
Rattus norvegicus [4]
  Activity: Carcinogenic activity
Rattus norvegicus [5]
  Activity: Carcinogenic activity

## CC(=O)N(O)c1ccc2c(c1)-c1ccccc1C2
Rattus norvegicus [6]
  Activity: Carcinogenic activity
Rattus norvegicus [21]
  Activity: Carcinogenic activity

## Nc1c2ccccc2cc2ccccc12
Rattus norvegicus [8]
  Activity: Carcinogenic activity
Rattus norvegicus [10]
  Activity: Carcinogenic activity
Rattus norvegicus [11]
  Activity: Carcinogenic activity

## NNc1nc(-c2ccc([N+](=O)[O-])cc2)cs1
Rattus norvegicus [1]
  Activity: Carcinogenic activity
Rattus norvegicus [19]
  Activity: Carcinogenic activity

## CC(=O)Nc1ccc2[nH]c3ccccc3c2c1
Rattus norvegicus [1]
  Activity: inactive
Rattus norvegicus [14]
  Activity: inactive
Rattus norvegicus [15]
  Activity: inactive
Rattus norvegicus [16]
  Activity: inactive
Rattus norvegicus [17]
  Activity: inactive
Rattus norvegicus [18]
  Activity: inactive

## Nc1ccc(/C=C/c2ccccc2)cc1
Rattus norvegicus [1]
  Activity: Carcinogenic activity
Rattus norvegicus [19]
  Activity: Carcinogenic activity
Rattus norvegicus [4]
  Activity: Carcinogenic activity

## CC(=O)Nc1ccc2c(ccc3ccccc32)c1
Rattus norvegicus [1]
  Activity: Carcinogenic activity
Rattus norvegicus [19]
  Activity: Carcinogenic activity
Rattus norvegicus [16]
  Activity: Carcinogenic activity
Rattus norvegicus [22]
  Activity: Carcinogenic activity
Rattus norvegicus [4]
  Activity: Carcinogenic activity
Rattus norvegicus [5]
  Activity: Carcinogenic activity

## Cc1cc(N)ccc1/C=C/c1ccccc1
Rattus norvegicus [8]
  Activity: Carcinogenic activity
Rattus norvegicus [9]
  Activity: Carcinogenic activity

## CC(=O)ON(C(C)=O)c1ccc(-c2ccccc2)cc1
Rattus norvegicus [8]
  Activity: Carcinogenic activity
Rattus norvegicus [9]
  Activity: Carcinogenic activity

## CC(=O)N(O)c1cccc2c1Cc1ccccc1-2
Rattus norvegicus [6]
  Activity: Carcinogenic activity
Rattus norvegicus [21]
  Activity: Carcinogenic activity

## CC(=O)Nc1cccc2c1Cc1ccccc1-2
Rattus norvegicus [6]
  Activity: Carcinogenic activity
Rattus norvegicus [21]
  Activity: Carcinogenic activity

Source: ChEMBL document CHEMBL1121791, “Computer-assisted structure-activity studies of chemical carcinogens. Aromatic amines” (J Med Chem, 1981)
